In ChEMBL document CHEMBL1145668, “The Effect of Ultraviolet Light on the Toxicity of Natural Products Toward the Eggs of Drosophila melanogaster” (J Nat Prod, 1983):
Activity calls are given as the source filed them. No cut-off for these calls is given here.

Tests used:
[1] = Ovicidal activity against Drosophila melanogaster egg by paper disk method; type: ADME
[2] = Photoovicidal activity against Drosophila melanogaster egg pretreated 1 hr before UV light irradiation for 45 mins by paper disk method; type: ADME; details: 0.75 h
[3] = test system: Escherichia coli; assay: Phototoxicity against Escherichia coli B; type: functional, organism-based
[4] = test system: Saccharomyces cerevisiae; assay: Phototoxicity against Saccharomyces cerevisiae; type: functional, organism-based
[5] = test system: Cyberlindnera jadinii; assay: Phototoxicity against Candida utilis; type: functional, organism-based
[6] = test system: Drosophila melanogaster; assay: Phototoxicity against Drosophila melanogaster larvae; type: functional, organism-based
[7] = test system: Aedes aegypti; assay: Phototoxicity against Aedes aegypti larvae; type: functional, organism-based
[8] = Ratio of ID50 for Drosophila melanogaster egg to ID50 for Drosophila melanogaster egg irradiated with UV light for 45 mins; type: ADME
[9] = Increase in ovicidal activity against Drosophila melanogaster egg incubated in dark by paper disk method; type: ADME

| SMILES | LD50 [1] | LD50 [2] | Activity [3] | Activity [4] | Activity [5] | Activity [6] | Activity [7] | selectivity ratio at 0.75 h [8] | Activity [9] |
| --- | --- | --- | --- | --- | --- | --- | --- | --- | --- |
| O=c1ccc2ccccc2o1 [COUMARIN] | 23 microg/cm2 |  |  |  |  |  |  |  |  |
| CC#Cc1ccc(-c2ccccc2)s1 | 2.9 microg/cm2 | 0.013 microg/cm2 | Active | Active | Active | Active | Active | 225 | Not Active |
| C#Cc1ccc(-c2ccccc2)s1 | 4.6 microg/cm2 | 0.025 microg/cm2 | Active | Active | Active | Active | Active | 200 | Not Active |
